In brackets after ≈: the same amount, converted by molar mass.
Legend:
[1] = Solubilizing effect of a 50% w/w solution of HPCD on steroids and CDS; details: 50% w/w aqueous hpcd
Description: An excess of E2-CDS was sonicated with an aqueous solution of the appropriate solubilizing agent for 30 minutes. The suspension was then centrifuged, filtered through 0.45 µm polyvinylidene difluoride (Millex-HV4, Millipore®) membranes and analyzed by HPLC. […] An estimation of the bulk equilibrium constant was obtained by correlating the millimolarity of E2-CDS solubilized and the millimolarity of the cyclodextrin added. This latter value was calculated using the average molecular weight of the isomeric mixture determined by mass spectroscopy. The solubilizing effect of a 50% w/w solution of HPCD was also examined for a series of steroids and dihydropyridines (CDS). These studies were carried out in a similar manner to those previously described.
For the CDS, the wavelength monitored was 360 nm while for estrogen 220 nm was used.
Separation was achieved on an Analytical Sciences, Inc. (ASI) 10 µm particle size, C18 reversed phase 30 cm x 3.9 mm i.d. analytical column. The flow rate was 1 mL/min, the compounds were detected at 360 nm and in all determinations the temperature was ambient. […] For the GABA-CDS1, a mobile phase consisting of 50:1:1:48 of the same components was required. […] Other compounds were assayed spectrophotometrically.

[2] = Preparation of solid freeze-dried HPCD complexes: degree of incorporation; type: physicochemical; details: for Amount of Drug in Dry Complex: freeze-dried complex from 50% w/w HPCD (ASDS 5.1)
Description: An excess of E2-CDS was added and the solution then was purged with helium. The resulting suspension was then sonicated for 30 minutes, filtered through a glass filter (ASTM 10-15M, Pyrex No. 36060) and freeze-dried overnight. Best results were obtained by hard-freezing the aqueous solution of the E2-CDS/HPCD complex for at least 10 hours before lyophilization. The degree of complex formation was determined by dissolving a small amount of the dry complex in methanol and then analyzing by high pressure liquid chromatography (HPLC).
An excess of E2-CDS or other CDS was added to a 50% w/w solution of HPCD. The suspension was sonicated for 30 minutes, filtered through 0.45 µm PVDF membranes and freeze-dried. The degree of incorporation was determined either spectrophotometrically or by HPLC. In some cases, the effect of solubilizing agents on the degree of incorporation was examined. This involved adding small amounts of polyoxyethylene 20 cetyl ether (Brij), polyoxyethylene sorbitan monooleate (Tween 80) or ethanol to the aqueous solution prior to lyophilization.
The retention time was 5.2 min. Other compounds were assayed spectrophotometrically.
The solution was degassed and the suspension was sonicated for 30 minutes, after which it was filtered and the filtrate was lyophilized. The dried filtrate contained 65.6 mg testosterone propionate or 29.6 mg T-CDS1 per gram of cyclodextrin complex. Compounds were analyzed for decomposition by thin-layer chromatography and ultraviolet absorption.

[3] = Maximum concentrations of selected CDS in varying concentrations of selected cyclodextrins; type: physicochemical
Description: In further testing, maximum concentrations of selected CDS in varying concentrations of selected cyclodextrins were determined. The concentration of E2-CDS (mg/mL) was as follows: […]

[4] = Observation of toxicity on injection (Experiments 1-3); type: in vivo, Male Sprague-Dawley rats; details: rats
Description: On day 15 after orchidectomy, rats were ether-anesthetized and the right external jugular vein exposed. Animals were then administered one of the following: testosterone-chemical delivery system (T-CDS1 or T-CDS2), testosterone (Steraloids Inc., Wilton, NH) or the vehicle, dimethyl sulfoxide (DMSO; Fisher Scientific, Fair Lawn, NJ). The testosterone-chemical delivery systems were given at doses equimolar to testosterone (25 mg/kg) so that T-CDS1 was administered at 35.5 mg/kg and rats received T-CDS2 at a dose of 45.1 mg/kg. DMSO was injected at a volume of 1 mL/kg. All compounds were administered by infusion over a 2 minute period. One milliliter of blood was withdrawn from the external jugular vein immediately before giving the drugs (1000 hours) and blood was sampled by cardiac puncture after 6, 12, 24 hours and on days 4 and 7. The sera were separated by centrifugation at 500 x g for 20 min at 4°C and stored at -20°C.
Two weeks after orchidectomy, rats were administered either T-CDS1, testosterone propionate (TP; Steraloids Inc.) or DMSO by means of intravenous infusion into the right external jugular vein in an effort to more effectively enhance the brain delivery of testosterone. It has been shown that slow infusion improves brain delivery of drugs attached to the chemical-delivery systems. […]

| Molecule | solubility [1] [mg/mL] | Amount of Drug in Dry Complex [2] [mg/g] | further results |
| --- | --- | --- | --- |
| COc1ccc2c(c1)CC[C@@H]1[C@@H]2CC[C@]2(C)[C@@H](O)CC[C@@H]12 [Estradiol 3-Methyl Ether] | 30 (≈ 105 mM) | – | – |
| CN1C=CCC(C(=O)NCCc2ccc(OC(=O)C(C)(C)C)c(OC(=O)C(C)(C)C)c2)=C1 [DA-CDS, 1-methyl-3-{{N-{β-[3,4-bis-(pivalyloxy)phenyl]ethyl}-carbamoyl}}-1,4-dihydropyridine] | 16 (≈ 36.2 mM) | 27 | – |
| 17β-{[(1-methyl-1,4-dihydropyridin-3-yl)carbonyl]oxy}-19-norpregn-4-en-20-yn-3-one [norethindrone-CDS] | – | 0.6 | concentration of the norethindrone-CDS ([3]; 40% hpcd): 7.13 mg/g; concentration of the norethindrone-CDS ([3]; 40% hpgcd): 15.9 mg/g |
| CCC(=O)O[C@H]1CC[C@H]2[C@@H]3CCC4=CC(=O)CC[C@]4(C)[C@H]3CC[C@]12C [Testosterone 17-Propionate] | 38 (≈ 110 mM) | 65.6 | – |
| C[C@]12CC[C@@H]3c4ccc(O)cc4CC[C@H]3[C@@H]1C[C@@H](O)[C@@H]2O [Estriol] | 40 (≈ 139 mM) | – | – |
| C[C@]12CC[C@H]3[C@@H](CCC4=CC(=O)CC[C@@]43C)[C@@H]1CC[C@@H]2O [Testosterone] | 38 (≈ 132 mM) | – | – |
| CN1C=CCC(C(=O)O[C@H]2CC[C@H]3[C@@H]4CCC5=CC(=O)CC[C@]5(C)[C@H]4CC[C@]23C)=C1 [T-CDS1, 17β-[(1,4-dihydro-1-methyl-3-pyridinylcarbonyl)oxy]androst-4-en-3-one] | 17.1 (≈ 41.8 mM) | 29.0 | toxicity on administration ([4]; DMSO vehicle, i.v. injection or infusion): respiratory distress and/or death; toxicity on administration ([4]; complexed with HPCD, tail vein injection): No respiratory distress or animal loss; drug content of dried filtrate ([2]; lyophilized from 50% w/v aqueous HPCD, degree of substitution 5.1): 29.6 mg per gram of cyclodextrin co |
